Activity calls are given as the source filed them. The rule behind the calls is not given here.
Assays:
[1] = target: Sodium-dependent serotonin transporter (Homo sapiens) (UniProt P31645); test: Binding affinity to serotonin transporter (unknown origin) at 1 uM
[2] = target: Sigma intracellular receptor 2 (Homo sapiens, UniProt Q5BJF2); test: Displacement of [3H]-di-o-tolylguanidine from sigma2 receptor in human RT4 cell membranes incubated for 120 mins in the presence of sigma1 receptor ligand (+)-pentazocine by scintillation counting method
[3] = target: CYP2D6 (Homo sapiens, UniProt P10635); test: Inhibition of recombinant human CYP2D6 at 1 uM by fluorescence assay relative to control; assay type: ADME
[4] = target: Cytochrome P450 2C9 (Homo sapiens, UniProt P11712); test: Inhibition of recombinant human CYP2C9 at 1 uM by fluorescence assay; assay type: ADME; settings: recombinant enzyme
[5] = target: T1, Alpha-1A adrenergic receptor (Homo sapiens) (UniProt P35348); test: Binding affinity to alpha 1a adrenergic receptor (unknown origin) at 1 uM relative to control
T1 sequence (whole entry): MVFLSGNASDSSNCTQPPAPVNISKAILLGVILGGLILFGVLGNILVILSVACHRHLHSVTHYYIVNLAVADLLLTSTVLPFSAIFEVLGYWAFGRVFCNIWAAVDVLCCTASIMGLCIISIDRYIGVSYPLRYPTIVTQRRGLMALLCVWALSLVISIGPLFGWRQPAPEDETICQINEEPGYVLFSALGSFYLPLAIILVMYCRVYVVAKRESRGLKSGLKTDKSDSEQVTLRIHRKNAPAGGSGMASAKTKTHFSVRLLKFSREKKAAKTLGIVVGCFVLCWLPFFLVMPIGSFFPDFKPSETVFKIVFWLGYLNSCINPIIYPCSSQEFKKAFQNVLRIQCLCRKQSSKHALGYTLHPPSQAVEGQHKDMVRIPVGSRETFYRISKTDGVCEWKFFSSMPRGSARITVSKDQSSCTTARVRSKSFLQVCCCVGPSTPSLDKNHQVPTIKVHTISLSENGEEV

[6] = target: Sodium-dependent noradrenaline transporter (Homo sapiens) (UniProt P23975); test: Binding affinity to noradrenaline transporter (unknown origin) at 1 uM
[7] = Metabolic stability in human liver microsomes assessed as parent compound remaining at 1 uM in the presence of NADPH regenerating system after 60 mins by UPLC/MS analysis; assay type: ADME, Microsome; settings: read-out: Stability

Chain of Sodium-dependent noradrenaline transporter (Homo sapiens) (P23975 whole entry): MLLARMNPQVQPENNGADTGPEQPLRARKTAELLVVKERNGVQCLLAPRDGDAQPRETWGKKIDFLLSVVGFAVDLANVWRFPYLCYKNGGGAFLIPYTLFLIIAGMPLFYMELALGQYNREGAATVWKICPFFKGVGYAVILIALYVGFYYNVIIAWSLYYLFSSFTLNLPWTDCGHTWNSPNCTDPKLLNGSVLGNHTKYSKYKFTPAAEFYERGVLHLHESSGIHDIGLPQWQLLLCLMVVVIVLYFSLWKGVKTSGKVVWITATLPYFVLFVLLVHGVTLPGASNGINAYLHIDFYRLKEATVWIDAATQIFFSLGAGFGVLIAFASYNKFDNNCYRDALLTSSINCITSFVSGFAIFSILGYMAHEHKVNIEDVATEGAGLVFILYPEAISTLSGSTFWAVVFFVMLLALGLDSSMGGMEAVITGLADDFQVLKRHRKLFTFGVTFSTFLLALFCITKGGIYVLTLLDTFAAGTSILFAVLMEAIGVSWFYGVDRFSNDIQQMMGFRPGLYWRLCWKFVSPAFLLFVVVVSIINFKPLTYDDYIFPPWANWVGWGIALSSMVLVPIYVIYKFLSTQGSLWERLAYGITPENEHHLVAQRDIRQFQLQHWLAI
Chain of Sodium-dependent serotonin transporter (Homo sapiens) (P31645 whole entry, looked up): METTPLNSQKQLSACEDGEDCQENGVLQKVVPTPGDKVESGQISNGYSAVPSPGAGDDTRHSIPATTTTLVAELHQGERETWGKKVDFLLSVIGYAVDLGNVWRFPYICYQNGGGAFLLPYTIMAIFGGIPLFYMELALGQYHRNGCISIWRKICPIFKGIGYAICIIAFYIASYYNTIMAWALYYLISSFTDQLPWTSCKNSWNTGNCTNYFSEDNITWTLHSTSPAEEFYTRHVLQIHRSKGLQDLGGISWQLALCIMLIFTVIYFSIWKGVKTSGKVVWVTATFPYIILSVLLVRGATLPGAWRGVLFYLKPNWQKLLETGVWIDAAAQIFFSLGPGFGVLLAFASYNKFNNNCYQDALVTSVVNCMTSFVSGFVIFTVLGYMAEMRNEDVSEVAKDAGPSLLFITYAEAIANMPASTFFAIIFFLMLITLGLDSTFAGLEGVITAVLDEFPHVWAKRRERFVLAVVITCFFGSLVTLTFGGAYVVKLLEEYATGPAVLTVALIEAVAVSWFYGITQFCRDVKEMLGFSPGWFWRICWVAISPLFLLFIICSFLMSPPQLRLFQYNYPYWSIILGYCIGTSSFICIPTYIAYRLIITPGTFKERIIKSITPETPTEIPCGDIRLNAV
Chain of CYP2D6 (P10635 whole entry): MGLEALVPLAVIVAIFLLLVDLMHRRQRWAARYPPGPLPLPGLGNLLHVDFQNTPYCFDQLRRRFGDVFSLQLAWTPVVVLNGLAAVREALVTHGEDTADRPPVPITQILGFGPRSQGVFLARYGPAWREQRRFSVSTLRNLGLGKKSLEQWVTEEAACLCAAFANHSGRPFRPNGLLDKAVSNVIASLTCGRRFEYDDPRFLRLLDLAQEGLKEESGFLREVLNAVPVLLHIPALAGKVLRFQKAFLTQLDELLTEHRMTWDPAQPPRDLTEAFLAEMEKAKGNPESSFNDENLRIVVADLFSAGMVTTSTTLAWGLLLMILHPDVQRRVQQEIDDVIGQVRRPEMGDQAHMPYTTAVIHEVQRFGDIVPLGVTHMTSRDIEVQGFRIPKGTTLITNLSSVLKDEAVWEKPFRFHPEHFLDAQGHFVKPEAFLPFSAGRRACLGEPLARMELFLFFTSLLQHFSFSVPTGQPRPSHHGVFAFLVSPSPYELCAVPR
Chain of Sigma intracellular receptor 2 (Q5BJF2 whole entry): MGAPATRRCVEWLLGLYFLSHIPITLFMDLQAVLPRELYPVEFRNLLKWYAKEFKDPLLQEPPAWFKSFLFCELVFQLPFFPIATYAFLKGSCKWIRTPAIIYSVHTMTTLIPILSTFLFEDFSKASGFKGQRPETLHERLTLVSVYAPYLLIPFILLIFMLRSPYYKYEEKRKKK
Chain of Cytochrome P450 2C9 (P11712 whole entry): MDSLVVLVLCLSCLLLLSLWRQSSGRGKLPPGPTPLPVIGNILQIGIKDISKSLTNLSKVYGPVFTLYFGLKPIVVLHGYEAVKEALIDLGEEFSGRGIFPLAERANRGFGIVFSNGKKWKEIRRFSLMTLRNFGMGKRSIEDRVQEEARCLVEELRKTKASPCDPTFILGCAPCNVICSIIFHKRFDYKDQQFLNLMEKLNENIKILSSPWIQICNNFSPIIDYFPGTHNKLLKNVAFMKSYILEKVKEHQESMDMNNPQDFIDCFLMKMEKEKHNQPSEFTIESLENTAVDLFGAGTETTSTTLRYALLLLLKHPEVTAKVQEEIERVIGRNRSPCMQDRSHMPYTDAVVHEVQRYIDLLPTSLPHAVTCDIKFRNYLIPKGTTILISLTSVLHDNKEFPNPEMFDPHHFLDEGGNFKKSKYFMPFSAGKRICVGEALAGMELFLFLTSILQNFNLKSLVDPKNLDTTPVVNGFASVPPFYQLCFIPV

Question: For COC1Cc2ccccc2[C@]2(CC[C@H](N(C)CC3CCCCC3)CC2)O1 (some centres not stated), which Activity [1] is on record?
Answer: inactive

Question: What about the Ki [2] of the same compound?
Answer: 0.013 µM

Question: And the inhibition at 1 µM [3]?
Answer: > 90%

Question: What about the “inhibition (INH)” value [4] of the same compound?
Answer: Not Active

Question: What about the Activity [5] of the same compound?
Answer: 68%

Question: And the Activity [6]?
Answer: inactive

Question: And the remaining at 1 h, 1 µM [7]?
Answer: > 50%

— ChEMBL document CHEMBL4385605, “Synthesis and Structure-Affinity Relationships of Spirocyclic Benzopyrans with Exocyclic Amino Moiety” (J Med Chem, 2019)
